Assay results as given in PMC9036659, “Boron-containing capsaicinoids” (RSC Advances, 2021).
In brackets after ≈: the same amount, converted by molar mass. Like-named read-outs stand apart in the source and are kept apart here. Marks after values point to notes of the source that are not given here.

Assays:
MRSA = tested on: MRSA; design: method as in doi:10.1139/cjc-2018-0193; details: data collected in previous study; Inactive = inhibition above 400 μM; cited from earlier work
[1] = tested on: vancomycin-resistant Enterococcus; design: method as in doi:10.1139/cjc-2018-0193; details: data collected in previous study; Inactive = inhibition above 400 μM; cited from earlier work
[2] = tested on: methicillin-resistant Staphylococcus aureus MRSA 310; assay: Antimicrobial assay, MRSA (PrestoBlue fluorescence); type: cell-based; details: for IC50 / MIC90: Staphylococcus aureus, MRSA; for IC50 / MIC90 / MRSA MIC90: 22 h; for IC50: read-out: MRSA IC50; for MIC90: read-out: MRSA MIC90
Description: (§1) The microorganisms (methicillin-resistant S. aureus MRSA 310, vancomycin-resistant E. faecium VRE 379, S. warneri (ATCC 17917), P. vulgaris (ATCC 12454), P. aeruginosa (ATCC 14210), and C. albicans (ATCC 14035)) were grown overnight on agar media. The following day the cultures were transferred into 0.9% saline water into a sterile glass tube. Using the McFarland reader, the turbidity was determined and further diluted into their respective media. The pure compounds were tested at seven different concentrations ranging from 2 to 128 μg mL^−1 in triplicate. Samples were plated into 96 well plates (10 μL in 20% DMSO) and then diluted pathogen (90 μL) was pipetted into the pre-prepared sample plates yielding 5 × 10^5 cfu mL^−1 with a final volume of 100 μL. Antibiotics that are active against specific pathogens were used as positive controls. The plates were incubated into a 37 °C incubator for 22 h. Growth of S. warneri. P. vulgaris, P. aeruginosa and C. albicans were measured by reading optical density (OD600), or in the case of slow growing microorganisms (MRSA and VRE), PrestoBlue was used to assess metabolic activity by measuring fluorescence (535–560)/(590–615) (excitation/emission) using a Thermo Scientific Varioskan Flash plate reader at time zero and then again after incubation of the plates for 22 h at 37 °C. After subtracting the time zero OD600 from the final reading, the percentages of microorganism survival relative to vehicle control wells were calculated. […]
(§2) Antimicrobial Assay Data Growth of S. warneri. P. vulgaris, P. aeruginosa and C. albicans were measured by reading optical density (OD600), or in the case of slow growing microorganisms (MRSA and VRE), PrestoBlue was used to assess metabolic activity by measuring fluorescence (535-560)⁄(590-615) (excitation/emission) using a Thermo Scientific Varioskan Flash plate reader at time zero and then again after incubation of the plates for 22 h at 37 °C. After subtracting the time zero OD600 from the final reading, the percentages of microorganism survival relative to vehicle control wells were calculated. […]

[3] = tested on: vancomycin-resistant Enterococcus faecium VRE 379; assay: Antimicrobial assay, VRE (PrestoBlue fluorescence); type: cell-based; details: for MIC90 / IC50 / VRE MIC90 / VRE IC50: 22 h, 37 °C, Inactive = inhibition above 300 μM; for IC50 / VRE IC50: average ± SD
Description: as §1, §2

[4] = tested on: Staphylococcus warneri (ATCC 17917); assay: Antimicrobial assay, S. warneri (OD600); type: cell-based; details: for MIC90 / IC50: Staphylococcus warneri; for MIC90: read-out: S. warneri MIC90; for IC50: read-out: S. warneri IC50
Description: as §1, §2

[5] = tested on: green monkey kidney cells Vero (ATCC CCL-81); assay: Cytotoxicity assay (Alamar blue), Vero; type: cell-based; details: for IC50 Vero (normal cell line) / IC50: 24 h incubation, average ± SD, Inactive = inhibition above 300 μM; for IC50: Chlorocebus sabaeus, Vero, read-out: IC50 Vero (normal cell line)
Description: (§3) The cells (human foreskin BJ fibroblast cells (ATCC CRL-2522), green monkey kidney cells Vero (ATCC CCL-81), human breast adenocarcinoma cells (ATCC HTB-26 MDA-MB 231), human breast adenocarcinoma cells (MCF7 ATCC HTB-22), and human colorectal carcinoma cells (HCT116 ATCC CCL-247)) were grown to 80% confluency, the cells were counted, diluted, and plated into treated 96-well cell culture plates. The BJ fibroblast and Vero cells were plated at a cell density of 10 000 cells per well and the HTB26, HCT116 and MCF7 cells were plated at cell density of 5000 cells per well in 90 μL of respective growth medium (without the addition of antibiotics) and incubated for 24 h to allow cells to adhere to the plates before treatment. Pure compounds were tested in triplicate in serial dilutions of seven concentrations ranging from 2 to 128 μg mL^−1 per well (final well volume of 100 μL, 1% DMSO per well). Each of the cell lines were incubated at 37 °C in a humidified atmosphere of 5% CO2; the BJ fibroblast and Vero cells for 24 h and the HTB-26, HCT116 and MCF7 cells for 72 h. Each plate contained four uninoculated positive controls, four untreated negative controls, and one column containing a concentration range for doxorubicin. Alamar blue was added, 24 h after the treatment, and fluorescence was monitored using a Cytation Gen 5 plate reader using 560 nm Ex/590 Em both at time zero and 4 h after Alamar blue addition. The inferred percentage of cell viability relative to vehicle control wells were calculated after subtracting the time zero emission 590 nm measurement from the final reading and the IC50 was determined. […]
(§4) Cytotoxicity Assay Data Alamar blue was added, 24 h after the treatment, and fluorescence was monitored using a Cytation Gen 5 plate reader using 560 nm Ex/590 Em both at time zero and 4 h after Alamar blue addition. The inferred percentage of cell viability relative to vehicle control wells were calculated after subtracting the time zero emission 590 nm measurement from the final reading and the IC50 was determined.

[6] = tested on: human foreskin BJ fibroblast cells (ATCC CRL-2522); assay: Cytotoxicity assay (Alamar blue), BJ; type: cell-based; details: for IC50 BJ (normal cell line) / IC50: 24 h incubation, average ± SD, Inactive = inhibition above 300 μM; for IC50: Homo sapiens, Fibroblast, read-out: IC50 BJ (normal cell line)
Description: as §3, §4

[7] = tested on: human colorectal carcinoma cells (HCT116 ATCC CCL-247); assay: Cytotoxicity assay (Alamar blue), HCT116; type: cell-based; details: for IC50: Homo sapiens, HCT-116, 72 h incubation, average ± SD, Inactive = inhibition above 300 μM, read-out: IC50 HCT (cancer cell line)
Description: as §3, §4

[8] = tested on: human breast adenocarcinoma cells (ATCC HTB-26 MDA-MB 231); assay: Cytotoxicity assay (Alamar blue), HTB-26; type: cell-based; details: for IC50: Homo sapiens, HTB26, 72 h incubation, average ± SD, Inactive = inhibition above 300 μM, read-out: IC50 HTB (cancer cell line)
Description: as §3, §4

[9] = tested on: human breast adenocarcinoma cells (MCF7 ATCC HTB-22); assay: Cytotoxicity assay (Alamar blue), MCF7; type: cell-based; details: for IC50: Homo sapiens, MCF7, 72 h incubation, average ± SD, Inactive = inhibition above 300 μM, read-out: IC50 MCF7 (cancer cell line)
Description: as §3, §4

[10] = 37 °C, average ± SD, Inactive = inhibition above 300 μM
[11] = 37 °C, concentration for 90% growth inhibition, Inactive = inhibition above 300 μM
[12] = ATCC17917, 22 h, 37 °C, Inactive = inhibition above 300 μM
[13] = ATCC17917, 22 h, 37 °C, average ± SD, Inactive = inhibition above 300 μM
[14] = 22 h, 37 °C, Inactive = inhibition above 300 μM
[15] = 22 h, 37 °C, average ± SD, Inactive = inhibition above 300 μM

Row | IC50 [2, 10] [µM] | VRE MIC90 [3] | VRE IC50 [3] | MRSA MIC90 [2, 11] | SMILES | antimicrobial activity against MRSA (in words) [2] | cytotoxic activity against HCT116 (in words) [7] | IC50 [7] [µM] | cytotoxic activity against HTB-26 MDA-MB 231 (in words) [8] | IC50 [8] [µM] | cytotoxic activity against MCF7 (in words) [9] | IC50 [9] [µM] | IC50 [5] [µM] | IC50 [6] [µM] | other results
1 | – | – | – | – | COc1cc(CNC(=O)CCCC/C=C/C(C)C)ccc1O [Capsaicin] | – | – | – | – | – | – | – | – | – | MRSA IC50 (MRSA): Inactive; MRSA MIC90 (MRSA): Inactive; VRE IC50 [1]: Inactive; VRE MIC90 [1]: Inactive
2 | – | – | – | – | COc1cc(CNC(=O)CCCCB2OC(C)(C)C(C)(C)O2)ccc1OCc1ccccc1 [Compound 8a] | – | – | – | – | – | – | – | – | – | IC50 (MRSA): 107 µM; MRSA MIC90 (MRSA): Inactive; VRE IC50 [1]: Inactive; VRE MIC90 [1]: Inactive
3 | 70.6 ± 6.6 | – | – | – | CCCCCC(=O)N(Cc1ccc(OC)c(OC)c1)c1cccc(B2OC(C)(C)C(C)(C)O2)c1 [Compound 25, N-(3,4-dimethoxyphenylmethyl)-N-[3-(4,4,5,5-tetramethyl-1,3,2-dioxaborolan-2-yl)phenyl]-hexanamide] | moderate activity | selective but low to moderate activity | 137 ± 12 | selective but low to moderate activity | 76.1 ± 3.4 | selective but low to moderate activity | 118 ± 19.5 | – | – | MIC90 [2, 11]: 137 µM (≈ 64 µg/mL); antimicrobial activity against VRE (in words) [3]: moderate activity; MIC90 [3]: 274 µM (≈ 128 µg/mL); IC50 [3]: 91.6 ± 6.8 µM; antimicrobial activity against S. warneri (in words) [4]: moderate activity; MIC90 [4, 12]: 137 µM (≈ 64 µg/mL); IC50 [4, 13]: 78.3 ± 39.8 µM; IC50 Vero (normal cell line) [5]: Inactive; IC50 BJ (normal cell line) [6]: Inactive
4 | 13.2 | Inactive | Inactive | – | CCCCCCCCCC(=O)N(Cc1ccc(OC)c(OC)c1)c1cccc(B2OC(C)(C)C(C)(C)O2)c1 [Compound 26, N-(3,4-dimethoxyphenylmethyl)-N-[3-(4,4,5,5-tetramethyl-1,3,2-dioxaborolan-2-yl)phenyl]-decanamide] | selectively active | unselective cytotoxic effects | 44.3 ± 10.5 | unselective cytotoxic effects | 31.5 ± 2.7 | unselective cytotoxic effects | 35.7 ± 16.2 | 47.2 ± 6.7 | 38.6 ± 1 | MIC90 [2, 11]: 15.3 µM (≈ 8.01 µg/mL); S. warneri MIC90 [4, 14]: Inactive; S. warneri IC50 [4, 15]: Inactive; cytotoxic activity against Vero (in words) [5]: unselective cytotoxic effects; cytotoxic activity against BJ (in words) [6]: unselective cytotoxic effects
5 | 121 ± 2 | Inactive | Inactive | Inactive | COc1ccc(CN(C(=O)CCCCB2OC(C)(C)C(C)(C)O2)c2ccccc2)cc1OC [Compound 31, N-(3,4-dimethoxybenzyl)-N-phenyl-5-(4,4,5,5-tetramethyl-1,3,2-dioxaborolan-2-yl)pentanamide] | low activity | selective but low to moderate activity | 126 ± 16.5 | selective but low to moderate activity | 58 ± 3.5 | selective but low to moderate activity | 108 ± 30.9 | – | – | antimicrobial activity against S. warneri (in words) [4]: low activity; MIC90 [4, 12]: 282 µM (≈ 128 µg/mL); IC50 [4, 13]: 135 ± 15.4 µM; IC50 Vero (normal cell line) [5]: Inactive; IC50 BJ (normal cell line) [6]: Inactive
6 | 154 ± 37.1 | Inactive | Inactive | Inactive | COc1ccc(CN(C(=O)CCCCCCCCB2OC(C)(C)C(C)(C)O2)c2ccccc2)cc1OC [Compound 32, N-(3,4-dimethoxybenzyl)-N-phenyl-9-(4,4,5,5-tetramethyl-1,3,2-dioxaborolan-2-yl)nonamide] | only active against MRSA | unselective cytotoxic effects | 80.1 ± 3.9 | unselective cytotoxic effects | 42.6 ± 1.8 | unselective cytotoxic effects | 68.5 ± 15.1 | 77.1 ± 8.4 | 112 ± 10 | S. warneri MIC90 [4, 14]: Inactive; S. warneri IC50 [4, 15]: Inactive; cytotoxic activity against Vero (in words) [5]: unselective cytotoxic effects; cytotoxic activity against BJ (in words) [6]: unselective cytotoxic effects
7 | – | – | – | – | COc1cccc2c1C(=O)c1c(O)c3c(c(O)c1C2=O)C[C@@](O)(C(=O)CO)C[C@@H]3O[C@H]1C[C@H](N)[C@H](O)[C@H](C)O1 [Doxorubicin, reference compound] | – | – | < 0.00012 | – | 0.4 ± 0.2 | – | 0.2 ± 0.2 | > 14.7 | > 14.7 | –
8 | – | – | – | – | CO[C@H]1/C=C/O[C@@]2(C)Oc3c(C)c(O)c4c(O)c(c(/C=N/N5CCN(C)CC5)c(O)c4c3C2=O)NC(=O)/C(C)=C\C=C\[C@H](C)[C@H](O)[C@@H](C)[C@@H](O)[C@@H](C)[C@H](OC(C)=O)[C@@H]1C [Rifampicin, reference compound] | – | – | – | – | – | – | – | – | – | MIC90 [3]: 2.4 µM (≈ 1.98 µg/mL); IC50 [3]: 1.2 ± 0.1 µM

Row | SMILES | IC50 [2, 10] [µM] | VRE MIC90 [3] | VRE IC50 [3] | MRSA MIC90 [2, 11] | antimicrobial activity against MRSA (in words) [2] | cytotoxic activity against HCT116 (in words) [7] | IC50 [7] [µM] | cytotoxic activity against HTB-26 MDA-MB 231 (in words) [8] | IC50 [8] [µM] | cytotoxic activity against MCF7 (in words) [9] | IC50 [9] [µM] | IC50 [5] [µM] | IC50 [6] [µM] | other results
9 | CN[C@H](CC(C)C)C(=O)N[C@H]1C(=O)N[C@@H](CC(N)=O)C(=O)N[C@H]2C(=O)N[C@H]3C(=O)N[C@H](C(=O)N[C@H](C(=O)O)c4cc(O)cc(O)c4-c4cc3ccc4O)[C@H](O)c3ccc(c(Cl)c3)Oc3cc2cc(c3O[C@@H]2O[C@H](CO)[C@@H](O)[C@H](O)[C@H]2O[C@H]2C[C@](C)(N)[C@H](O)[C@H](C)O2)Oc2ccc(cc2Cl)[C@H]1O [Vancomycin, reference compound] | – | – | – | 1.4^a μM | – | – | – | – | – | – | – | – | – | IC50 [2]: 0.5 ± 0.1 µM; MIC90 [2]: 1.4 µM (≈ 2.03 µg/mL); IC50 ([4]; ATCC17917, 22 h): 0.3 ± 0.1 µM; MIC90 ([4]; ATCC17917, 22 h): 0.3 µM (≈ 0.435 µg/mL)
